Experimental data published in US6555676B2, “Biologically active phosphotriester-type compounds” (Centre National de la Recherche Scientifique, priority 1992, dated 2003).
Like-named read-outs stand apart in the source and are kept apart here.

Key:
[1] = test system: non-infected CEM-TK− cells; test: Toxic effect on non-infected cells (MTT/formazan), CEM-TK−; format: cell-based, Human; conditions: 50% inhibition of formazan formation, 5 days
Description: (§1) The toxic effect on non-infected CEMs is assessed by a calorimetric reaction based on the capacity of living cells to reduce 3-(4,5-dimethylthiazol-2-yl)-2,5-diphenyltetrazolium bromide into formazan after incubation for 5 days in the presence of various concentrations of the compounds.

non-infected MT-4 cells = test: Toxic effect on non-infected cells (MTT/formazan), MT-4; format: cell-based, Human; conditions: 50% inhibition of formazan formation
[2] = test system: non-infected CEM-SS cells; test: Toxic effect on non-infected cells (MTT/formazan), CEM-SS; format: cell-based, Human; conditions: 50% inhibition of formazan formation, 5 days
Description: as §1

[3] = format: in vitro ADME, Human
Description: (§2) The “ISRP on line” HPLC technique (“On-line Internal Surface Reversed-Phase Cleaning: The Direct HPLC Analysis of Crude Biological Samples”, A. Pompon, I. Lefebvre and J. L. Imbach, Biochemical Pharmacology, 43,1769-1775 (1992) was used for this study, the compound studied being incubated respectively in culture medium (RPMI/10% inactivated serum) and in a total cell extract (CEM).
(§3) Certain kinetic studies comparing the compound of Example 16A, i.e., S,S′-bis(O-pivaloyl-2-oxyethyl) O-2, 3-dideoxyadenosin-5′-yl phosphorodithiolate, also designated as iso[Bis(SATE)ddA] and its isosteric compound of Example 9, i.e., O-(2′,3′-dideoxyadenosin-5′-yl)-O,O′-bis([…]) phosphate, also designated as [Bis(SATE)ddAMP] were effected. The kinetic were studies were performed in culture medium (RPMI containing […] heat-inactivated fetal calf serum) in order to evaluate the stability of the pronucleotides in the extracellular medium used for antiviral evaluation in cell culture systems, and in total cell extracts that mimic the behavior of the compounds inside cells. The “on-line ISPR cleaning” HPLC method of Lefebvre et al., J. Med. Chem., 38, 3941-3950, 1995, were used for the studies. The products resulting from the decomposition were characterized by co-injection with authentic samples and/or by coupled HPLC/Mass Spectroscopy. The kinetics of transformation of the two isomeric pronucleotides strongly differed according to the medium. In culture medium the first iso-SATE group was cleaved in 38.5 hr whereas the first SATE group was cleaved in 165 hr. The second iso-SATE group was cleaved in 5.8 hr whereas the second SATE group was cleaved in 46 hr. In total cell extracts, the first iso-SATE group was cleaved in 5.3 hr whereas the SATE group was cleaved in 1 hr.

[4] = format: in vitro ADME
Description: as §2, §3

HIV-1 (LAI isolate) [5] = test: Anti-HIV-1 activity (RTase in culture supernatant) in CEM-SS cells; format: cell-based; conditions: lowest concentration reducing RTase production by at least 50%, 5 days, read-out: ED50 (the source's name)
Description: (§4) HIV-1 replication (LAI isolate) in CEM cells is measured by assaying the reverse transcriptase (RTase) in the culture supernatant after infection for 5 days. This activity reflects the presence of the virus released by the cells. After adsorption of the virus, the test compounds are added, at various concentrations, to the culture medium.
(§5) Antiviral activity is expressed as the lowest concentration of compound which reduces the production of RTase by at least 50% (ED50)
(§6) The compounds were tested as described in Example 5 above.
(§7) The iso-SATE pronucleotides of Examples 16A and 16B were evaluated for their inhibitory effects on the replication of HIV-1 in CEM-SS and in thymidine-kinase deficient cell lines (CEM/TD). For comparison, the parent nucleosides ddA and d4T, and the corresponding bis(SATE) phosphotriesters bis(tBuSATE)ddAMP (the compound of Example 9) and bis(tBuSATE)d4TMP, were evaluated in the same experiments.

HIV-1 = test: Anti-HIV-1 activity in MT-4 cells; format: cell-based, Human immunodeficiency virus; conditions: for EC50: read-out: ED50 (the source's name)
Description: as §4, §5, §6

HIV-1 (LAI isolate) [6] = test: Anti-HIV-1 activity (RTase in culture supernatant) in CEM-TK− cells; format: cell-based; conditions: for EC50: CEM-TK− cells, lowest concentration reducing RTase production by at least 50%, 5 days, read-out: ED50 (the source's name)
Description: as §4, §5, §6, §7

reverse transcriptase = reverse transcriptase (Human immunodeficiency virus type 1 group M subtype B, UniProt P04585); conditions: cited from earlier work
[7] = culture medium (RPMI with heat-inactivated fetal calf serum)

Row | Compound | CD50 [1] | CD50 (non-infected MT-4 cells) | CD50 [2] | EC50 (HIV-1 (LAI isolate) [5]) | EC50 (HIV-1 (LAI isolate) [6]) | further results
1 | O=c1[nH]cnc2c1ncn2[C@H]1CC[C@@H](CO)O1 [ddI, reference compound] | (CD50 > 10^−4 M) | (CD50 > 10^−4 M) | (CD50 > 10^−4 M) | – | – | –
2 | CC(=O)SCCOP(=O)(OCCSC(C)=O)OC[C@@H]1CC[C@H](n2cc(C)c(=O)[nH]c2=O)O1 [Bis(SATE)ddTMP, O-(2′,3′-Dideoxythymidin-5′-yl)-O,O′-bis(S-acetyl-2-thioethyl)-phosphate] | (CD50 > 10^−4 M) | – | – | – | – | –
3 | CC(=O)SCCOP(=O)(OCCSC(C)=O)OC[C@@H]1CC[C@H](n2cnc3c(=O)[nH]cnc32)O1 [Bis(SATE)ddIMP, O-(2′,3″ -Dideoxyinosin-5′-yl)-O,O′-bis(S-acetyl-2-thioethyl)-phosphate] | (CD50 > 10^−4 M) | (CD50 > 10^−4 M) | (CD50 > 10^−4 M) | – | – | –
4 | CC(C)(C)C(=O)OCCSP(=O)(OC[C@@H]1CC[C@H](n2cnc3c(N)ncnc32)O1)SCCOC(=O)C(C)(C)C [iso[Bis(SATE)ddA], S,S′-bis (Ö-pivaloyl-2-oxyethyl) O2′,3′-dideoxyadenosin-5′-yl phosphorodithiolate] | – | – | – | – | – | time in which the first (iso-)SATE group was cleaved ([3]; total cell extracts): 5.3 h; time in which the first (iso-)SATE group was cleaved [4, 7]: 38.5 h; time in which the second (iso-)SATE group was cleaved [4, 7]: 5.8 h
5 | CC(=O)SCCOP(=O)(OCCSC(C)=O)OC[C@@H]1CC[C@H](n2cnc3c(N)ncnc32)O1 [Bis(SATE)ddAMP, O-(2′,3′-Dideoxyadenosin-5′-yl)—O,O′-bis(S-acetyl-2-thioethyl)-phosphate] | (CD50 > 10^−5 M) | – | – | – | – | time in which the first (iso-)SATE group was cleaved [3]: 1 h; time in which the first (iso-)SATE group was cleaved [4]: 165 h; time in which the second (iso-)SATE group was cleaved [4]: 46 h
6 | Nc1ncnc2c1ncn2CCOCP(=O)(OCCSSCCO)OCCSSCCO [Compound 4] | (CD50 4 · 10^−5 M) | (CD50 2 · 10^−5 M). | (CD50 > 10^−4 M) | 3 µM | 0.08 µM | EC50 (HIV-1): 0.8 µM
7 | O=c1ccn([C@H]2CC[C@@H](COP(=O)(OCCSSCCO)OCCSSCCO)O2)c(=O)[nH]1 [Compound 2, O,O′-Bis(S-(2-hydroxyethylsufidyl)-2-thioethyl)-o-(2′,3′-dideoxyuridin-5′-yl)phosphate] | (CD50 8 · 10^−5 M) | – | (CD50 10^−4 M) | 60 µM | 8 µM | half-life in cell extract ([3]; total cell extract (CEM)): less than 5 minutes; half-life in culture medium ([4]; RPMI/10% inactivated serum): 9 h
8 | Cc1cn([C@H]2C[C@H](N=[N+]=[N-])[C@@H](CO)O2)c(=O)[nH]c1=O [AZT, 3′-azido-2′,3,-dideoxythymidine, reference compound] | (CD50 > 10^−4 M) | (CD50 > 10^−4 M) | (CD50 > 10^−4 M) | – | > 100 µM | –
9 | Nc1ncnc2c1ncn2[C@H]1CC[C@@H](CO)O1 [ddA, reference compound] | (CD50 > 10^−4 M) | (CD50 > 10^−4 M) | (CD50 > 10^−4 M) | – | – | EC50 (HIV-1): 10 µM
10 | O=c1ccn([C@H]2CC[C@@H](COP(=O)(O)OP(=O)(O)OP(=O)(O)O)O2)c(=O)[nH]1 [2′,3′-Dideoxyuridine 5′-triphosphate] | – | – | – | – | – | inhibition of reverse transcriptase (in words) (reverse transcriptase): excellent inhibitor
11 | Cc1cn([C@H]2C[C@H](N=[N+]=[N-])[C@@H](COP(=O)(OCCSSCCO)OCCSSCCO)O2)c(=O)[nH]c1=O [Compound 3, O,O′-Bis(S-(2-hydroxyethylsufidyl)-2-thioethyl)-O-(3′azido-3′-deoxythymidin-5′-yl)phosphate] | (CD50 8 · 10^−5 M) | (CD50 8 · 10^−5 M) | (CD50 8 · 10^−5 M) | 0.0007 µM | 7 µM | EC50 (HIV-1): 0.001 µM
12 | Cc1cn([C@H]2C=C[C@@H](CO)O2)c(=O)[nH]c1=O [d4T, reference compound] | – | – | – | – | – | anti-HIV-1 activity (in words, FIG. 10) (HIV-1 (LAI isolate) [6]; thymidine-kinase deficient CEM cells): weakly active
13 | CC(=O)SCCOP(=O)(OCCSC(C)=O)OC[C@@H]1CC[C@H](n2ccc(=O)[nH]c2=O)O1 [Compound 1, O-(2′,3′-dideoxyuridin-5′-yl)-O,O′-bis(S-acetyl-2-thioethyl)phosphate] | (CD50 7 · 10^−5 M) | (CD50 9 · 10^−5 M) | (CD50 9 · 10^−5 M) | 5 µM | 4 µM | ED50 (HIV-1): 2 · 10^−6 M
